# According to patent US12060347B2 (BRISTOL-MYERS SQUIBB COMPANY, priority 2016, dated 2024):
# Target: T1, human PAR4 (Homo sapiens, UniProt Q96RI0)
# T1 construct: expressed in transfected cells; host or cells: HEK293 PAR4 Clone 1.2A (BMS Arctic ID 383940)
# T1 sequence (Q96RI0 18-385): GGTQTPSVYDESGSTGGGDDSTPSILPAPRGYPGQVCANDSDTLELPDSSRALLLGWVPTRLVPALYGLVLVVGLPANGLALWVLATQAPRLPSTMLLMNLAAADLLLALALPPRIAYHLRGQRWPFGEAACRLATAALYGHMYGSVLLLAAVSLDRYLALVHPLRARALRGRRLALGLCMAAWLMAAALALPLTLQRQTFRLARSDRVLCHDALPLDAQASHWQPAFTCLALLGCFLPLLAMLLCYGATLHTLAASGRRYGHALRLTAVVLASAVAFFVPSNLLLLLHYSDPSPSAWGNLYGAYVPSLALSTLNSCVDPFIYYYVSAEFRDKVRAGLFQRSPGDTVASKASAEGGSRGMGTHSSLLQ
# Experiment: PAR4 FLIPR assay: antagonism of agonist-peptide-induced calcium mobilization in PAR4-expressing HEK293 cells
# Format: cell-based
# Settings: H-Ala-Phe(4-F)-[…]NH2-induced intracellular calcium mobilization, 11-point curves
row,SMILES,IC50
1,"Cc1ncc(NC(=O)O[C@H](C)[C@H](C)Oc2cc3sc(-c4cc(Cl)cc5cc(OCC(F)F)cnc45)nc3cc2F)cn1 [Example 651, (2R,3S)-3-((2-(6-chloro-3-(2,2-difluoroethoxy)quinolin-8-yl)-5-fluorobenzo[d]thiazol-6-yl)oxy)butan-2-yl (2-methylpyrimidin-5-yl)carbamate]",4.3 nM
2,"CNc1cnc2c(-c3nc4cc(F)c(O[C@@H](C)[C@@H](C)OC(=O)Nc5cnc(C)nc5)cc4s3)cc(Cl)cc2c1 [Example 652, (2R,3S)-3-((2-(6-chloro-3-(methylamino)quinolin-8-yl)-5-fluorobenzo[d]thiazol-6-yl)oxy)butan-2-yl (2-methylpyrimidin-5-yl)carbamate]",11 nM
3,"COc1cnc2c(-c3nc4cc(F)c(O[C@@H](C)[C@@H](C)OC(=O)Nc5cnc(C)nc5)cc4s3)cc(C(F)F)cc2c1 [Example 653, (2R,3S)-3-((2-(6-(difluoromethyl)-3-methoxyquinolin-8-yl)-5-fluorobenzo[d]thiazol-6-yl)oxy)butan-2-yl (2-methylpyrimidin-5-yl)carbamate]",0.83 nM
4,"COc1cnc2c(-c3nc4cc(F)c(O[C@@H](C)[C@@H](C)OC(=O)Nc5cnc(C)nc5)cc4s3)cc(CF)cc2c1 [Example 654, (2R,3S)-3-((5-fluoro-2-(6-(fluoromethyl)-3-methoxyquinolin-8-yl)benzo[d]thiazol-6-yl)oxy)butan-2-yl (2-methylpyrimidin-5-yl)carbamate]",1 nM
5,"COc1cnc2c(-c3nc4cc(F)c(O[C@@H](C)[C@@H](C)OC(=O)Nc5cnc(C)nc5)cc4s3)cc(C#N)cc2c1 [Example 655, (2R,3S)-3-((2-(6-cyano-3-methoxyquinolin-8-yl)-5-fluorobenzo[d]thiazol-6-yl)oxy)butan-2-yl (2-methylpyrimidin-5-yl)carbamate]",1.1 nM
6,"COc1cnc2c(-c3nc4c(C(O)C5(C(F)(F)F)CCC5)cc(OC)cc4s3)cc(Cl)cc2c1 (stereo not drawn) [Example 656, (2-(6-chloro-3-methoxyquinolin-8-yl)-6-methoxybenzo[d]thiazol-4-yl)(1-(trifluoromethyl)cyclobutyl)methanol]",2.4 nM
7,"COc1cnc2c(-c3nc4cc(F)c(O[C@@H](C)[C@@H](C)OC(=O)Nc5cnc(C)nc5)cc4s3)cc(OC)cc2c1 [Example 657, (2R,3S)-3-((2-(3,6-dimethoxyquinolin-8-yl)-5-fluorobenzo[d]thiazol-6-yl)oxy)butan-2-yl (2-methylpyrimidin-5-yl)carbamate]",1.1 nM
8,"COc1cnc2c(-c3nc4c(C(O)C(C)(C)C)cc(OCCOC(=O)Nc5ccncc5)cc4s3)cc(C)cc2n1 (stereo not drawn) [Example 658, 2-((4-(1-hydroxy-2,2-dimethylpropyl)-2-(2-methoxy-7-methylquinoxalin-5-yl)benzo[d]thiazol-6-yl)oxy)ethyl pyridin-4-ylcarbamate]",3 nM
9,"Cc1cc(-c2nc3cc(F)c(O[C@@H](C)[C@@H](C)OC(=O)Nc4cnc(C)nc4)cc3s2)c2ncc(OC(F)F)cc2c1 [Example 659, (2R,3S)-3((2-(3-(difluoromethoxy)-6-methylquinolin-8-yl)-5-fluorobenzo[d]thiazol-6-yl)oxy)butan-2-yl (2-methylpyrimidin-5-yl)carbamate]",2.1 nM
10,"CCOc1cnc2c(-c3nc4cc(F)c(O[C@@H](C)[C@@H](C)OC(=O)Nc5cnc(C)nc5)cc4s3)cc(C)cc2c1 [Example 660, (2R,3S)-3-((2-(3-ethoxy-6-methylquinolin-8-yl)-5-fluorobenzo[d]thiazol-6-yl)oxy)butan-2-yl (2-methylpyrimidin-5-yl)carbamate]",2 nM
11,"CCOc1cnc2c(-c3cc4ccccc4o3)cc(C)cc2n1 [Example 661, 5-(benzofuran-2-yl)-2-ethoxy-7-methylquinoxaline]",55 nM
12,"COc1ccc(OC(=O)NCCOc2cc(C)c3nc(-c4cc(C)cc5nc(OC)cnc45)sc3n2)cc1 [Example 662, 4-methoxyphenyl (2-((2-(2-methoxy-7-methylquinoxalin-5-yl)-7-methylthiazolo[5,4-b]pyridin-5-yl)oxy)ethyl)carbamate]",77 nM
13,"COc1cc(C(O)C2CCOCC2)c2nc(-c3cc(C)cc4nc(OC)cnc34)sc2c1 (stereo not drawn) [Example 663, (6-methoxy-2-(2-methoxy-7-methylquinoxalin-5-yl)benzo[d]thiazol-4-yl)(tetrahydro-2H-pyran-4-yl)methanol]",7 nM
14,"COc1cc(C(O)C2(c3ccccc3)CC2)c2nc(-c3cc(C)cc4nc(OC)cnc34)sc2c1 (stereo not drawn) [Example 668, (6-methoxy-2-(2-methoxy-7-methylquinoxalin-5-yl)benzo[d]thiazol-4-yl)(1-phenylcyclopropyl)methanol]",7.3 nM
15,"COc1cc(C(O)c2nccs2)c2nc(-c3cc(C)cc4nc(OC)cnc34)sc2c1 (stereo not drawn) [Example 673, (6-methoxy-2-(2-methoxy-7-methylquinoxalin-5-yl)benzo[d]thiazol-4-yl)(thiazol-2-yl)methanol]",39 nM
16,"COc1cc(F)cc(C(O)c2cc(OC)cc3sc(-c4cc(C)cc5nc(OC)cnc45)nc23)c1 (stereo not drawn) [Example 675, (3-fluoro-5-methoxyphenyl)(6-methoxy-2-(2-methoxy-7-methylquinoxalin-5-yl)benzo[d]thiazol-4-yl)methanol]",10 nM

# Next, values leading:
row,IC50,SMILES
1,1.7 nM,"COc1cc(C(O)C2(c3ccccc3)CCC2)c2nc(-c3cc(C)cc4nc(OC)cnc34)sc2c1 (stereo not drawn) [Example 665, (6-methoxy-2-(2-methoxy-7-methylquinoxalin-5-yl)benzo[d]thiazol-4-yl)(1-phenylcyclobutyl)methanol]"
2,1.1 nM,"COc1cc(C(O)C2(OC)CCC2)c2nc(-c3cc(C)cc4nc(OC)cnc34)sc2c1 (stereo not drawn) [Example 666, (6-methoxy-2-(2-methoxy-7-methylquinoxalin-5-yl)benzo[d]thiazol-4-yl)(1-methoxycyclobutyl)methanol]"
3,5.6 nM,"COc1cc(C(O)C2(C(F)(F)F)CC2)c2nc(-c3cc(C)cc4nc(OC)cnc34)sc2c1 (stereo not drawn) [Example 667, (6-methoxy-2-(2-methoxy-7-methylquinoxalin-5-yl)benzo[d]thiazol-4-yl)(1-(trifluoromethyl)cyclopropyl)methanol]"
4,2.3 nM,COc1cc(C(O)C2(C(F)(F)F)CCC2)c2nc(-c3cc(C)cc4nc(OC)cnc34)sc2c1 (stereo not drawn) [Example 669]
5,1.9 nM,"COc1cc(C(O)C2(C)CC2)c2nc(-c3cc(C)cc4nc(OC)cnc34)sc2c1 (stereo not drawn) [Example 671, (6-methoxy-2-(2-methoxy-7-methylquinoxalin-5-yl)benzo[d]thiazol-4-yl)(1-methylcyclopropyl)methanol]"
6,1.9 nM,"COc1cc(C(O)C2(C)CCCCC2)c2nc(-c3cc(C)cc4nc(OC)cnc34)sc2c1 (stereo not drawn) [Example 672, (6-methoxy-2-(2-methoxy-7-methylquinoxalin-5-yl)benzo[d]thiazol-4-yl)(1-methylcyclohexyl)methanol]"
7,20 nM,"COc1cc(C(O)C2(C)CCOCC2)c2nc(-c3cc(C)cc4nc(OC)cnc34)sc2c1 (stereo not drawn) [Example 674, (6-methoxy-2-(2-methoxy-7-methylquinoxalin-5-yl)benzo[d]thiazol-4-yl)(4-methyltetrahydro-2H-pyran-4-yl)methanol]"
8,3.2 nM,"COc1cc(C(O)C2(C)CCCCC2)c2nc(-c3cc(C)cc4nc(OC)cnc34)sc2c1 (stereo not drawn) [Example 676, (6-methoxy-2-(2-methoxy-7-methylquinoxalin-5-yl)benzo[d]thiazol-4-yl)(1-methylcyclohexyl)methanol]"
